Counter-ions that a name gives are not always drawn. Like-named read-outs stand apart in the source and are kept apart here.

For assay [1], the target named is T1, neuronal nicotinic cholinergic channel receptors (Rattus norvegicus, UniProt P09483+P12390).
T1 construct: crude synaptic membrane preparations from whole rat brain; from tissue; host or cells: whole rat brain, crude synaptic membranes
The assay can be described thus: [3H]-cytisine radioligand displacement binding (Protocol A). On the procedure: Binding of [^3H]-cytisine ([^3H]-CYT) to nicotinic receptors was accomplished using crude synaptic membrane preparations from whole rat brain (Pabreza et al., Molecular Pharmacol., 1990, 39:9). Washed membranes were stored at -80°C prior to use. Frozen aliquots were slowly thawed and resuspended in 20 volumes of buffer (containing: 120 mM NaCl, 5 mM KCl, 2 mM MgCl2, 2 mM CaCl2 and 50 mM Tris-Cl, pH 7.4 @4°C). After centrifuging at 20,000x g for 15 minutes, the pellets were resuspended in 30 volumes of buffer. Homogenate (containing 125-150 µg protein) was added to triplicate tubes containing concentrations of test compound and [^3H]-CYT (1.25 nM) in a final volume of 500 µL. Samples were incubated for 60 minutes at 4°C, then rapidly filtered through Whatman GF/B filters presoaked in 0.5% polyethyleneimine using 3 x 4 mL of ice-cold buffer. The filters are counted in 4 mL of Ecolume® (ICN). […] Alternately, data were expressed as a percentage of the total specific binding.
In general terms: In a radioligand displacement assay an active substance lowers the binding of a labelled ligand.

Assay [2] has as its system Neuronal Nicotinic Cholinergic Channels in IMR-32 Cells. The assay can be described thus: 86Rb+ efflux in IMR-32 cells (Protocol B). Conditions: for IMR-32 maximal response: percent relative to the response elicited by 100 µM (S)-nicotine; for EC50: read-out: IMR-32 EC50, activation of 86Rb+ efflux, IMR-32 human neuroblastoma cells.
Procedure: For the purpose of directly evaluating the ability of test compounds to functionally activate or inhibit certain subtypes of neuronal nicotinic cholinergic channels, an assay to determine ^86Rb^+ efflux in IMR-32 cells was employed (Protocol B below).
Experimental cells were seeded at a density of 500,000 cells/mL into a 24-well tissue culture dish. Plated cells were allowed to proliferate for at least 48 hours before loading with 2 µCi/mL of ^86Rb^+ (35 Ci/mmol) overnight at 37°C.
Setting [3] is: inhibition of the efflux elicited by 100 µM (S)-nicotine, single dose 1 µM.
The mark [4] stands for this setting: inhibition of the efflux elicited by 100 µM (S)-nicotine, single dose 10 µM.
Where [5] appears, read: displacement of [3H]-CYT (1.25 nM), crude synaptic membranes from whole rat brain, IC50 converted to Ki (Cheng and Prusoff), read-out: Binding.

T1 sequence (P09483 31-630): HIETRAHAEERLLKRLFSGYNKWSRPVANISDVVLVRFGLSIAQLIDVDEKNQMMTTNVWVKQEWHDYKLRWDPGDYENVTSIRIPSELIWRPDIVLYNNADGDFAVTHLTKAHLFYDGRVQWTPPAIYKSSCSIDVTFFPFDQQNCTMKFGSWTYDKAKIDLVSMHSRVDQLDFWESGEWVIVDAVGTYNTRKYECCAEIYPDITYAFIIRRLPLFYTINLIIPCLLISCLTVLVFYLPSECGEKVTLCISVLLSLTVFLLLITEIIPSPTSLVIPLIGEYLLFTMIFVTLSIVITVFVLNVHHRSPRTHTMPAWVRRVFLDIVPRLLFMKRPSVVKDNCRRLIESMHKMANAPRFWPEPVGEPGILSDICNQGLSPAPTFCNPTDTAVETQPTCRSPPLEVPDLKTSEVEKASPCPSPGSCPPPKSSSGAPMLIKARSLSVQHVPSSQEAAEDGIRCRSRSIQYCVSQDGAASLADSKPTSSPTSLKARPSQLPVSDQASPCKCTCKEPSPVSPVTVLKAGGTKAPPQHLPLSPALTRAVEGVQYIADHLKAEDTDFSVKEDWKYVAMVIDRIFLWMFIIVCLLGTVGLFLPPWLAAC
T1 sequence (P12390 25-500): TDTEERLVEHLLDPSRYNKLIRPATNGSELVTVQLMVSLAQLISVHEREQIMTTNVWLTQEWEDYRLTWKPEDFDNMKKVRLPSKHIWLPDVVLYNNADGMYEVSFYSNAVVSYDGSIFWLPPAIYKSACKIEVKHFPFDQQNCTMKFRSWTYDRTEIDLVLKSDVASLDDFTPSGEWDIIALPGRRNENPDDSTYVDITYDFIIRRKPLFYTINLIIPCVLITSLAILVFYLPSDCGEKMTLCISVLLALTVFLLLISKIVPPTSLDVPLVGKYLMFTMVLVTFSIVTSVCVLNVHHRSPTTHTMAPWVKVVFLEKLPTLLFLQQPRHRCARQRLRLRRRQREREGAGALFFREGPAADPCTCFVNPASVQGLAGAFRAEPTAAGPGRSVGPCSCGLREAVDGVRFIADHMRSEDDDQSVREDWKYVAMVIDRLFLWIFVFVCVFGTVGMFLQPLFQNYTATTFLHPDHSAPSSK

For `CN1CCC[C@@H]1COc1cnc(Cl)c(Br)c1.Cl` [Example 8, 5-bromo-6-chloro-3-(1-methyl-2-(R)-pyrrolidinylmethoxy)pyridine hydrochloride], the Ki in assay [1] came to 13 nM. For the same compound, the “% Inhibition @ 1 µM” value in assay [2] (setting [3]) turned out to be 28%. Moreover, the “% Inhibition @ 10 µM” value in assay [2] (setting [4]) is on record as 60%. The IMR-32 maximal response in assay [2] came out at 10.6%.

For the compound `Cc1ncc(OC[C@@H]2CCN2)cc1Br.Cl` [Example 52, 5-bromo-6-methyl-3-(2-(S)-azetidinylmethoxy)pyridine hydrochloride], in assay [2], the IMR-32 maximal response came to 124% and the EC50 was found to be 1600 nM.

“5-Ethyl-6-chloro-3-(1-methyl-2-(S)-pyrrolidinylmethoxy)pyridine hydrochloride [Example 47]”: the Ki in assay [1] (setting [5]) is 0.065 nM. Also, in assay [2], the IMR-32 maximal response was 152% and the concentration for a half-maximal effect (EC50) worked out at 22000 nM.

For `CN1CC[C@@H]1COc1cnc(Cl)c(Cl)c1.Cl` [Example 18, 5,6-dichloro-3-(1-methyl-2-(R)-azetidinylmethoxy)pyridine hydrochloride], the Ki in assay [1] (setting [5]) was determined as 2.4 nM. In assay [2], the “% Inhibition @ 1 µM” value is recorded as 0%, the “% Inhibition @ 10 µM” value amounted to 18% and the IMR-32 maximal response is 22.5%.

With `Cl.Clc1cc(OC[C@H]2CCN2)cnc1Cl` [Example 17, 5,6-dichloro-3-(2-(R)-azetidinylmethoxy)pyridine hydrochloride], the Ki in assay [1] is 0.06 nM. In assay [2], the IMR-32 maximal response is 108% and the half-maximal effective concentration (EC50) was 200 nM.

On to `CN1CCC[C@H]1COc1cnc(Cl)c(Cl)c1.Cl` [Example 12, 5,6-Dichloro-3-(1-methyl-2-(S)-pyrrolidinylmethoxy)pyridine hydrochloride], for which the Ki in assay [1] (setting [5]) came out at 0.11 nM. For the same compound, in assay [2], the “% Inhibition @ 1 µM” value turned out to be 5%, the “% Inhibition @ 10 µM” value turned out to be 8% and the IMR-32 maximal response came out at 16%.

Regarding `Cl.Clc1ncc(OC[C@@H]2CCN2)cc1Br` [Example 2, 5-Bromo-6-chloro-3-(2-(S)-azetidinylmethoxy)pyridine hydrochloride], in assay [2], the IMR-32 maximal response came to 120% and the EC50 amounted to 100 nM.

With `Cl.Clc1cc(OC[C@@H]2CCCN2)cnc1Cl` [Example 11, 5,6-Dichloro-3-(2-(S)-pyrrolidinylmethoxy)pyridine hydrochloride], the Ki in assay [1] (setting [5]) was found to be 0.029 nM. Further, in assay [2], the IMR-32 maximal response came out at 93% and the EC50 was 600 nM.

For `CN1CC[C@H]1COc1cnc(Cl)c(Cl)c1.Cl` [Example 16, 5,6-dichloro-3-(1-methyl-2-(S)-azetidinylmethoxy)pyridine hydrochloride], the Ki in assay [1] (setting [5]) was 0.7 nM. Further, in assay [2], the “% Inhibition @ 1 µM” value is 35%, the IMR-32 maximal response came out at 37% and the 50% effective concentration (EC50) came out at 500 nM.

Turning to `Cl.Clc1cc(OC[C@@H]2CCN2)cnc1Cl` [Example 15, 5,6-dichloro-3-(2-(S)-azetidinylmethoxy)pyridine hydrochloride], in assay [2], the IMR-32 maximal response was 152% and the EC50 came to 300 nM.

For the compound `CN1CC[C@H]1COc1cnc(Cl)c(C#N)c1.Cl` [Example 50, 5-Cyano-6-chloro-3-(1-methyl-2-(S)-azetidinylmethoxy)pyridine hydrochloride], in assay [1] (setting [5]), the Ki was 0.88 nM. In assay [2], the IMR-32 maximal response was 35% and the EC50 was 10000 nM.

In the case of `CN1CC[C@H]1COc1cnc(Cl)c(Br)c1.Cl` [Example 3, 5-Bromo-6-chloro-3-(1-methyl-2-(S)-azetidinylmethoxy)pyridine hydrochloride], the Ki in assay [1] (setting [5]) is 0.38 nM. For the same compound, the “% Inhibition @ 1 µM” value in assay [2] came out at 55%.

Consider `CN1CCC[C@@H]1COc1cnc(Cl)c(Cl)c1.Cl` [Example 10, 5,6-Dichloro-3-(1-methyl-2-(R)-pyrrolidinylmethoxy)pyridine hydrochloride], for which the Ki in assay [1] (setting [5]) amounted to 20 nM. Also, in assay [2], the “% Inhibition @ 1 µM” value stood at 18%, the “% Inhibition @ 10 µM” value is 90% and the IMR-32 maximal response is 3.3%.

In the case of `CCc1cc(OC[C@H]2CCCN2)cnc1Cl.Cl` [Example 48, 5-Ethyl-6-chloro-3-(2-(R)-pyrrolidinylmethoxy)pyridine hydrochloride], in assay [1] (setting [5]), the Ki is 0.027 nM. Besides, in assay [2], the IMR-32 maximal response was found to be 129% and the 50% effective concentration (EC50) is 56000 nM.

In turn, `Cl.Cl.Clc1ncc(OC[C@H]2CCCN2)cc1Br` [Example 7, 5-bromo-6-chloro-3-(2-(R)-pyrrolidinylmethoxy)pyridine dihydrochloride] yielded a Ki in assay [1] of 0.099 nM. Moreover, in assay [2], the IMR-32 maximal response was found to be 70% and the EC50 came to 4900 nM.

In the case of `CCc1cc(OC[C@@H]2CCCN2)cnc1Cl.Cl` [Example 46, 5-Ethyl-6-chloro-3-(2-(S)-pyrrolidinylmethoxy)pyridine hydrochloride], in assay [1] (setting [5]), the Ki worked out at 0.6 nM. Also, in assay [2], the IMR-32 maximal response is recorded as 11%.

As for `NC(=O)c1cc(OC[C@@H]2CCN2)cnc1Cl` [Example 51, hydrochloride], the Ki in assay [1] (setting [5]) was found to be 0.19 nM. For the same compound, in assay [2], the IMR-32 maximal response came out at 64% and the EC50 worked out at 16000 nM.

Consider `CCc1cc(OC[C@@H]2CCN2)cnc1Cl.Cl` [Example 45, 5-Ethyl-6-chloro-3-(2-(S)-azetidinylmethoxy)pyridine hydrochloride], for which the Ki in assay [1] turned out to be 0.04 nM. Besides, in assay [2], the IMR-32 maximal response turned out to be 137% and the EC50 was 400 nM.

Consider `Cl.Clc1cc(OC[C@H]2CCCN2)cnc1Cl` [Example 9, 5,6-Dichloro-3-(2-(R)-pyrrolidinylmethoxy)pyridine hydrochloride], for which the Ki in assay [1] (setting [5]) was determined as 0.03 nM. Besides, in assay [2], the IMR-32 maximal response was 67% and the concentration giving a half-maximal response (EC50) is 1600 nM.

On to `CN1CCC[C@H]1COc1cnc(Cl)c(Br)c1.Cl.Cl` [Example 5, 5-Bromo-6-chloro-3-(1-methyl-2-(S)-pyrrolidinylmethoxy)pyridine dihydrochloride], for which the Ki in assay [1] turned out to be 0.35 nM. Further, the “% Inhibition @ 1 µM” value in assay [2] (setting [3]) worked out at 12%. Moreover, in assay [2] (setting [4]), the “% Inhibition @ 10 µM” value stood at 22%. In assay [2], the IMR-32 maximal response worked out at 12%.

Take `Cl.N#Cc1cc(OC[C@@H]2CCN2)cnc1Cl` [Example 49, 5-Cyano-6-chloro-3-(2-(S)-azetidinylmethoxy)pyridine hydrochloride]: the Ki in assay [1] (setting [5]) was determined as 0.097 nM. Moreover, in assay [2], the IMR-32 maximal response is 158% and the half-maximal effective concentration (EC50) stood at 290 nM.

A word on the EC50: it is the concentration needed to bring the measured effect to its halfway point.

For the origin of these results see patent publication EP0846114B1, “3-PYRIDYLOXYALKYL HETEROCYCLIC ETHER COMPOUNDS USEFUL IN CONTROLLING CHEMICAL SYNAPTIC TRANSMISSION” (priority 1995, dated 1996).
